Laboratory results published in patent publication US20260265300A1, “TARGETING PRAC1 IN STEROID HORMONE DRIVEN CANCER” (Fred Hutchinson Cancer Center, priority 2023, published 2026).
“Also recorded” adds a separate entry of the source. Like-named read-outs stand apart in the source and are kept apart here.

Key:
[1] = system: LNCaP-abl cells; assay: Cell viability of LNCaP-abl cells exposed to PRAC1 peptides (CellTiter-Blue, 72 hours); type: cell-based; conditions: increasing concentrations of peptide
Method: (§1) PRAC1-negative LNCaP-abl cells were grown and exposed to increasing concentrations of the cell-permeable peptides, and cell viability was measured after 72 hours using CellTiter-Blue® (Patel et al., Cancer Res. Commun. 2(5):277-285 2022. doi: 10.1158/2767-9764.crc-21-0156. Epub 2022 May 2). […] The PRAC-F6 peptide was further tested for cell permeability.
(§2) Cell viability of androgen receptor negative and androgen receptor positive cells was tested in vitro. The androgen positive cell lines LNCaP and LNCaP-abl and the androgen receptor negative cell lines PC3 and DU145 were incubated with the PRAC-F6, carboxy terminal peptide including the TAT cell penetration peptide. Cell viability was measured after 72 hours using CellTiter-Blue®.
LNCaP-abl cells were incubated with increasing concentrations of PRAC1 peptides, and cell viability was determined after 72 hours using CellTiter-Blue®. […]

[2] = system: PC3; assay: Cell viability of androgen receptor negative PC3 cells (CellTiter-Blue, 72 hours); type: cell-based; conditions: PC3 (AR negative)
Method: as §2, with “peptide.” for “peptide. Cell viability was measured after 72 hours using CellTiter-Blue®.”

[3] = system: DU145; assay: Cell viability of androgen receptor negative DU145 cells (CellTiter-Blue, 72 hours); type: cell-based; conditions: DU145 (AR negative)
Method: as §2, with “peptide.” for “peptide. Cell viability was measured after 72 hours using CellTiter-Blue®.”

[4] = system: LNCaP-abl cells; conditions: N-terminally FITC-labeled peptide, flow cytometry
Method: as §1

[5] = system: human prostate cancer LAPC4-CR cells; assay: In vivo prostate cancer xenograft model (LAPC4-CR in castrated NSG mice); conditions: castrated male NSG mice, intraperitoneally daily, versus scrambled control peptide
Method: The peptide was also tested in an in vivo in prostate cancer xenograft model. Male NOD SCID gamma (NSG) mice were chemically castrated by subcutaneous injection of degarelix. Mice were then engrafted with PRAC1-negative human prostate cancer LAPC4-CR cells. When tumors reached palpable size, PRAC1 peptide PRAC-F6 or a scrambled control peptide (sc) were delivered intraperitoneally daily. Tumor size was measured by caliper.

[6] = system: LNCaP; assay: Cell viability of androgen receptor positive LNCaP cells (CellTiter-Blue, 72 hours); type: cell-based; conditions: LNCaP (AR positive)
Method: as §2, with “peptide.” for “peptide. Cell viability was measured after 72 hours using CellTiter-Blue®.”

[7] = system: MCF7; assay: Cell viability of MCF7 breast cancer cells (CellTiter-Blue); type: cell-based; conditions: MCF7 (estrogen and progesterone receptor positive), relative to scrambled control peptide
From the text: Estrogen and progesterone receptor positive breast cancer cell line MCF7 with PRAC1 peptide […] FIG. 8A.

[8] = target: T1, AR LBD (Homo sapiens, UniProt P10275); assay: Recombinant protein-based binding assay by surface plasmon resonance; conditions: highly stringent conditions (0.5M NaCl)
T1 sequence (P10275 669-900 limits assumed): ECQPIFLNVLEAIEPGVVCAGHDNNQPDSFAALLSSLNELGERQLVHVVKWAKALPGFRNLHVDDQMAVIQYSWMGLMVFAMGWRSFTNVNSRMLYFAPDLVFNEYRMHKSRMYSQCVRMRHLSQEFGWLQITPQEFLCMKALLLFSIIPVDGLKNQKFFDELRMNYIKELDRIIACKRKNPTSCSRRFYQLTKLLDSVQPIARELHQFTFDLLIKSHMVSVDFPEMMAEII

[9] = target: T2, full-length AR (Homo sapiens, UniProt P10275); assay: Binding to purified full-length AR and effect on its DNA binding activity; type: biochemical
T2 construct: made in house
T2 sequence (P10275 1-920): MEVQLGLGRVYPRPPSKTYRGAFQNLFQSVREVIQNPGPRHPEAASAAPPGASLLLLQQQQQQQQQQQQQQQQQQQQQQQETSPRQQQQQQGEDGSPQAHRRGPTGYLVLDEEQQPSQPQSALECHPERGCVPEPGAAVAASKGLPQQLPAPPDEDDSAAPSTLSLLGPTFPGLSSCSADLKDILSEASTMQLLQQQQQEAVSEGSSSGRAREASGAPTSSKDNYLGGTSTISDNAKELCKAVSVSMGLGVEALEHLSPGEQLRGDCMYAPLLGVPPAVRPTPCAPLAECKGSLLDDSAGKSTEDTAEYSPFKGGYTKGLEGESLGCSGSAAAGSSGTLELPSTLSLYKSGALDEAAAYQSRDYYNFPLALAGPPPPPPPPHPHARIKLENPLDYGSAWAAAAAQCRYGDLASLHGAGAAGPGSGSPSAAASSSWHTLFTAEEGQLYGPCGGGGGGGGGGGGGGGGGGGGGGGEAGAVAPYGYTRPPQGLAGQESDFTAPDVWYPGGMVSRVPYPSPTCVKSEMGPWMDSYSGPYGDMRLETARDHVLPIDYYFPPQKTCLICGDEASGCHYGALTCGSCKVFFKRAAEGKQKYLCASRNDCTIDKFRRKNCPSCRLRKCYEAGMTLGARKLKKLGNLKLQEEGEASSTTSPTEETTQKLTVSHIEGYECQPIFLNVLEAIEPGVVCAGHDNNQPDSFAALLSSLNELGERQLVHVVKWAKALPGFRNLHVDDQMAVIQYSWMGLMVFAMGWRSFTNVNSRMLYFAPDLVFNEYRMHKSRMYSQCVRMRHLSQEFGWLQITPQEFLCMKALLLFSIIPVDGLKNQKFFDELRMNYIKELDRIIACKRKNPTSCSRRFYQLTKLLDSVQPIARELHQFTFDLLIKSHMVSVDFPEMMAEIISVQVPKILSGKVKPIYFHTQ

[10] = system: LNCaP-abl cells; assay: Proliferation of LNCaP-abl cells with enzalutamide by live cell imaging; type: cell-based; conditions: 10 μM enzalutamide
Method: Resistance to ARSI therapy is a major driver of PC related mortality. In this example, PRAC1-negative LNCaP-abl cells were grown in fully supplemented growth media (RPMI plus 10% FBS) in the absence or presence of 10 μM enzalutamide. Cell proliferation was determined longitudinally by live cell imaging using a Cytation™ 5 imaging instrument. […] Restoring PRAC1 function can result in re-sensitization of ARSI therapy (FIG. 4).

## LFSLIRKHLLRKKRRQRRRG [PRAC1-F6, C-terminus of PRAC1 linked to the cell permeable TAT peptide]
[1]
  cell viability: biologically active in reducing cell viability; also recorded: profound dose-dependent decrease in cell viability
[1]; listed as PRAC-F6
  cell viability: profound loss of viability
[2]
  cell viability: Only AR-expressing cell lines show profound dose-dependent decrease in cell viability
[2]; listed as PRAC-F6
  cell viability: only AR-expressing cell lines show a profound loss of viability
[3]
  cell viability: Only AR-expressing cell lines show profound dose-dependent decrease in cell viability
[3]; listed as PRAC-F6
  cell viability: only AR-expressing cell lines show a profound loss of viability
[4]; listed as PRAC-F6
  peptide uptake (cellular internalization): rapid cellular internalization
[4]; listed as SEQ ID NO:17
  peptide uptake (cellular internalization): uptake
[5]
  tumor growth (tumor size by caliper): suppression of LAPC4-CR tumor growth
[5]; listed as PRAC-F6
  tumor growth (tumor size by caliper): suppression of tumor growth
[6]
  cell viability: profound dose-dependent decrease in cell viability
[6]; listed as PRAC-F6
  cell viability: profound loss of viability

## PPRVLFSLIAKHLLRKKRRQRRRG [SEQ ID NO:28, arginine-to-alanine mutant]
[1]
  cell viability: attenuated activity on cell viability

## PPRVLFSLARKHLLRKKRRQRRRG [SEQ ID NO:27, isoleucine-to-alanine substitution mutant]
[1]
  cell viability: no effect on cell viability

## PPRVLFSLIRKHLLRKKRRQRRRG [SEQ ID NO:18]
[1]
  cell viability: profound anti-tumor cell activity
[7]
  cell viability: dose-dependent decrease in cell viability; also recorded: dose-dependent decrease is cell viability

## MLACKVRQAGFWSPPLQREQRCCAPISQIKDRPILLPPRVLFSLIRKHLL (listed as Homo sapiens) [PRAC1, PRAC1 protein encoded by ORF1 of PRAC1 gene]
[8]
  binding to AR LBD: specifically binds the AR LBD
[9]
  binding to full-length AR and change of its DNA binding activity: specifically binds and alters full-length AR's DNA binding activity

## CNC(=O)c1ccc(N2C(=S)N(c3ccc(C#N)c(C(F)(F)F)c3)C(=O)C2(C)C)cc1F [enzalutamide]
[10]; LNCaP-abl cells transduced with control vector (RFP), RPMI plus 10% FBS
  cell proliferation / sensitivity to enzalutamide: resistant to enzalutamide across a broad concentration range
[10]; LNCaP-abl cells with re-expression of PRAC1 (lentiviral ORF1)
  cell proliferation / sensitivity to enzalutamide: sensitization to enzalutamide and significant growth suppression; also recorded: restoration of sensitivity to this drug
